Assays:
Histone deacetylase 1 [1] = biological target: T1, Histone deacetylase 1 (Homo sapiens, UniProt Q13547); test: Inhibition of HDAC1 (unknown origin)
U-251 = test: Antiproliferative activity against human U-251 cells assessed as reduction in cell viability incubated for 24 hrs by MTT assay; type: functional, cell-based; settings: U-251, 24 h
[2] = Brain to plasma ratio in rat; type: ADME; settings: read-out: BPR
Histone deacetylase 1 [3] = biological target: T1, Histone deacetylase 1; test: Inhibition of C-terminal FLAG-tagged human recombinant HDAC1 expressed in baculovirus by HTRF method
[4] = biological target: T2, Protein deacetylase HDAC6 (Homo sapiens, UniProt Q9UBN7); test: Inhibition of N-terminal FLAG-tagged full length human recombinant HDAC6 expressed in baculovirus
T2 sequence (Q9UBN7 whole entry): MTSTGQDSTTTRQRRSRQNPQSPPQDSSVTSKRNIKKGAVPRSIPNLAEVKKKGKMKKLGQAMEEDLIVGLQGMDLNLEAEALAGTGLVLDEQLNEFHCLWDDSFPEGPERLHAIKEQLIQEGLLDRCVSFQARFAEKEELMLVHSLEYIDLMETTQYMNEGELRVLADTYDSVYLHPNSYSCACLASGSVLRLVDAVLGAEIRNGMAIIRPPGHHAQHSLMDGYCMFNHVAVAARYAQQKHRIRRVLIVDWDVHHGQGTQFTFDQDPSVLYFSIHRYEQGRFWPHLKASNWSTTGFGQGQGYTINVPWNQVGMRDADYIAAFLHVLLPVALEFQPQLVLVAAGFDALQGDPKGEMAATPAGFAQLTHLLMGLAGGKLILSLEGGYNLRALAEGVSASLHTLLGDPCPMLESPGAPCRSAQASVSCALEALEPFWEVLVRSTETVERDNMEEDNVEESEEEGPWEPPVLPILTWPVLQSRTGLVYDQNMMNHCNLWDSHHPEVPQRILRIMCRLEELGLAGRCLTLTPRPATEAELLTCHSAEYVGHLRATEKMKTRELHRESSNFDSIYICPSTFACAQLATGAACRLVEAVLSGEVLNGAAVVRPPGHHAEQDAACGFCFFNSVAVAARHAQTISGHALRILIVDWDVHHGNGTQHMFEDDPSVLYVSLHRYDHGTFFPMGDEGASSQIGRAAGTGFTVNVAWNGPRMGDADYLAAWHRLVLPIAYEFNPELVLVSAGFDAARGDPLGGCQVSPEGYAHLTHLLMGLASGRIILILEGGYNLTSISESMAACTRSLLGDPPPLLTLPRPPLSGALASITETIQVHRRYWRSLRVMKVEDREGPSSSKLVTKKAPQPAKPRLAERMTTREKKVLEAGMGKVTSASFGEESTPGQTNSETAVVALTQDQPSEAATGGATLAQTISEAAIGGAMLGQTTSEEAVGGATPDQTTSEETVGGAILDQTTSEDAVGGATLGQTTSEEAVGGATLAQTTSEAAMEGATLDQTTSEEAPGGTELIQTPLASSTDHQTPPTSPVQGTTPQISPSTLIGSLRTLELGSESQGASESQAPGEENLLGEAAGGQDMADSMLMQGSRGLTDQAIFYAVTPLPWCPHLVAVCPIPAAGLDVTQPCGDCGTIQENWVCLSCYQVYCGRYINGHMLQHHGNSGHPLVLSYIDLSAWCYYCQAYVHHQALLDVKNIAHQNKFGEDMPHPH

Histone deacetylase 2 = Histone deacetylase 2 (Homo sapiens, UniProt Q92769); test: Inhibition of C-terminal FLAG-tagged full length human recombinant HDAC2 expressed in Sf9 cells by HTRF method
Histone deacetylase 2, sequence (Q92769 whole entry, the tested form may be a part): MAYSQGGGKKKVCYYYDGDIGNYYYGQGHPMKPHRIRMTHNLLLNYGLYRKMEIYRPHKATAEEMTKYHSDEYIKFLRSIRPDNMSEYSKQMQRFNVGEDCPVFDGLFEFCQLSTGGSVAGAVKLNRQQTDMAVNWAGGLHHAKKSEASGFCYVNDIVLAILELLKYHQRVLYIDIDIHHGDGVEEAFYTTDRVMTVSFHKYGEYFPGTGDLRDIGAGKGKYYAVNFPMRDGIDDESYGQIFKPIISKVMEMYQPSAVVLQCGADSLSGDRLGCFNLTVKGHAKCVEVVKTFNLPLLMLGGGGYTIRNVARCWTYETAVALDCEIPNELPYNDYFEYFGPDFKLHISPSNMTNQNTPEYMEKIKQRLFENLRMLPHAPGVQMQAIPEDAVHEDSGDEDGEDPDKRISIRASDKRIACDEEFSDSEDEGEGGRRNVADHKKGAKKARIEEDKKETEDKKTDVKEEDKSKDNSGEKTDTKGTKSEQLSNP

[5] = biological target: Histone deacetylase 4 (Homo sapiens) (UniProt P56524); test: Inhibition of human recombinant HDAC4 (645 to 1057 residues) expressed in Escherichia coli
Histone deacetylase 4 (Homo sapiens), sequence (P56524 whole entry, the tested form may be a part): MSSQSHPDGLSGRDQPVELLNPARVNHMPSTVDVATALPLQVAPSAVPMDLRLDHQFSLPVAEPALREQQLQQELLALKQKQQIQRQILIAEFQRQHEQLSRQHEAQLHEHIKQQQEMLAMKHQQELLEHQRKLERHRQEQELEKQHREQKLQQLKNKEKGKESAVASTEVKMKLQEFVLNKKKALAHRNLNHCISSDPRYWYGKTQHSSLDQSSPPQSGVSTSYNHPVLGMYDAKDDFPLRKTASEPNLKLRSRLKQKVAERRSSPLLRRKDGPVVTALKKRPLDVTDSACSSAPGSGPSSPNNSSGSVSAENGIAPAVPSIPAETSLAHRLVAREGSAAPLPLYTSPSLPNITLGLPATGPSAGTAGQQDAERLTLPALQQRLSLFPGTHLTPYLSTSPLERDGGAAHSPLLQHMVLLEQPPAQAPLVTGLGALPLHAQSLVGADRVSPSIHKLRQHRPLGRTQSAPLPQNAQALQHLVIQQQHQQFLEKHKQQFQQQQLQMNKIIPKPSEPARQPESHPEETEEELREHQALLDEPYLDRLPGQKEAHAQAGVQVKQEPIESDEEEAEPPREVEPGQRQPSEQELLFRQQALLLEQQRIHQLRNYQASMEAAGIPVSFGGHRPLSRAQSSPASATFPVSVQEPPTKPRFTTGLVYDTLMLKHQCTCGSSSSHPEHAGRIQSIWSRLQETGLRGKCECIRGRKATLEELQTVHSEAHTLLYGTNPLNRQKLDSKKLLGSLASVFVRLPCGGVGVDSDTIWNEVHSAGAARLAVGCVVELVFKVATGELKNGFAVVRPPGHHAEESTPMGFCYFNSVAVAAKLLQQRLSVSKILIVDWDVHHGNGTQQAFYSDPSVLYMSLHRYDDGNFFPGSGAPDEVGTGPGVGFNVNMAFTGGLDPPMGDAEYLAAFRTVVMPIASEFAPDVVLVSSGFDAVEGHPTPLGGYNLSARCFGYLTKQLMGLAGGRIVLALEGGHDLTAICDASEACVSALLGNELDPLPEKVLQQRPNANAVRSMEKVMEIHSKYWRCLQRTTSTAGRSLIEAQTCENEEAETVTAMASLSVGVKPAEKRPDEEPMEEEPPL

Histone deacetylase 8 = biological target: T3, Histone deacetylase 8 (Homo sapiens, UniProt Q9BY41); test: Inhibition of C-terminal FLAG-tagged full length human recombinant HDAC8 expressed in baculovirus
T3 sequence (Q9BY41 whole entry): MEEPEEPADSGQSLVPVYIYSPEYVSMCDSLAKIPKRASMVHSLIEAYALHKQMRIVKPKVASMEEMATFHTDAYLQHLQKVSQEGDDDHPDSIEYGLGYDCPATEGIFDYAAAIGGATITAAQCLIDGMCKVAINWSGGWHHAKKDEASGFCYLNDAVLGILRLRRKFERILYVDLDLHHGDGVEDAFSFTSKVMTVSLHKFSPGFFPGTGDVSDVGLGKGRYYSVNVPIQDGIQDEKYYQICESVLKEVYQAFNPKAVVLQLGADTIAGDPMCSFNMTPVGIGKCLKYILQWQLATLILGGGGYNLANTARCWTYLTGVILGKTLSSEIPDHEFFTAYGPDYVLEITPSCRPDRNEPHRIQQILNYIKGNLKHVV

[6] = biological target: T2, Protein deacetylase HDAC6; test: Inhibition of human HDAC6
U-87 MG [7] = test: Antiproliferative activity against human U87 cells assessed as reduction in cell viability incubated for 72 hrs by MTT assay
[8] = Half life in mouse; type: ADME, organism-based; settings: in vivo
U-87 MG [9] = test: Antiproliferative activity against human U87 cells assessed as reduction in cell growth incubated for 72 hrs by MTT assay; type: functional, cell-based, U-87MG ATCC
[10] = Half life in mouse plasma at 1 uM by LC-MS/MS analysis; type: ADME, cell-free

T1 sequence (Q13547 whole entry): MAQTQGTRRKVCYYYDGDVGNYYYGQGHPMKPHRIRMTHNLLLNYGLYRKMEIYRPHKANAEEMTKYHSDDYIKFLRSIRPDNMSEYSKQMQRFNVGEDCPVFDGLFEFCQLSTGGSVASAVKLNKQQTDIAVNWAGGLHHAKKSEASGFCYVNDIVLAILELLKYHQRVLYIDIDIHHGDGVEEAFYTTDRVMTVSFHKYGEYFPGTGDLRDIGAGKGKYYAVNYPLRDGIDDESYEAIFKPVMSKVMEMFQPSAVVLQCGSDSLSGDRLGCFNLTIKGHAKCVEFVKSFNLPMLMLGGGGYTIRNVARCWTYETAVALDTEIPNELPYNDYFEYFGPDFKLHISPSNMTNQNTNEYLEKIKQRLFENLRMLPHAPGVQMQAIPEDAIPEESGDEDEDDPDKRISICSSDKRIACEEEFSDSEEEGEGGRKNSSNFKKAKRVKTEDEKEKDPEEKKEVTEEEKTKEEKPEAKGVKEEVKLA

With `O=C(CCCCCCC(=O)Nc1cc(C(F)(F)F)ccc1Cl)NO` the IC50 (Histone deacetylase 1 [1]) was 120 nM and the IC50 (U-251) was 890 nM.
With `O=C(NO)c1ccc(CN2CCCSc3ccccc32)cc1` the Kp [2] was 2.3.
In the case of `COc1cc(-c2nc(C(=O)NCc3ccc(C(=O)NO)cc3)cc3c2[nH]c2ccccc23)cc(OC)c1OC`, the IC50 (Histone deacetylase 1 [3]) is reported as 8.7 nM, the IC50 [4] is reported as 3.8 nM and the IC50 (Histone deacetylase 2) is reported as > 559 nM. For the same compound, the IC50 [5] was > 559 nM and the IC50 (Histone deacetylase 8) was > 559 nM.
With `CN1CCC2c3ccccc3N(Cc3ccc(C(=O)NO)cc3)C2C1` (centres undefined) the IC50 [6] was 15 nM and the Kp [2] was 0.18.
Compound `COc1cc(/C=C/C(=O)CC(=O)/C=C/c2ccc(O)c(OC)c2)ccc1O` [CURCUMIN] has an IC50 (U-87 MG [7]) of 31900 nM and a t1/2 [8] of 0.287 h.
`COc1cc(/C=C/C(=O)CC(=O)/C=C/c2ccc(/C=C/C(=O)NO)cc2)ccc1O` gave an IC50 (U-87 MG [9]) of 2780 nM and a half-life at 1 µM [10] of 1.53 h.
